Experimental data from paper PMC6715182, “Helicobacter pylori senses bleach (HOCl) as a chemoattractant using a cytosolic chemoreceptor” (PLoS Biology, 2019).

Target: T1, DgcZ (Escherichia coli, UniProt P31129)
T1 construct: CZB domain (DgcZ-CZB, strain K12)
Assay: cysteine sulfenic acid formation on purified domain, dimedone trapping and immunoblot
Assay type: binding

T1 sequence (P31129 2-127): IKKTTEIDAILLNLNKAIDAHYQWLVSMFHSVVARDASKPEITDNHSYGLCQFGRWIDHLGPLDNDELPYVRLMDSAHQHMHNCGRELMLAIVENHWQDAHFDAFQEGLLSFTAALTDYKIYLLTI

OCl [HOCl]
cysteine sulfenic acid formation on purified domain, dimedone trapping and immun: We found them to be similarly reactive toward HOCl as TlpD
